The record followed here is publication PMC7073924, “2-Aminomethylene-5-sulfonylthiazole Inhibitors of Lysyl Oxidase (LOX) and LOXL2 Show Significant Efficacy in Delaying Tumor Growth” (Journal of Medicinal Chemistry, 2019).

Assay [1] concerns the target T1, LOXL2 (Homo sapiens, UniProt Q9Y4K0).
T1 sequence (Q9Y4K0 26-774): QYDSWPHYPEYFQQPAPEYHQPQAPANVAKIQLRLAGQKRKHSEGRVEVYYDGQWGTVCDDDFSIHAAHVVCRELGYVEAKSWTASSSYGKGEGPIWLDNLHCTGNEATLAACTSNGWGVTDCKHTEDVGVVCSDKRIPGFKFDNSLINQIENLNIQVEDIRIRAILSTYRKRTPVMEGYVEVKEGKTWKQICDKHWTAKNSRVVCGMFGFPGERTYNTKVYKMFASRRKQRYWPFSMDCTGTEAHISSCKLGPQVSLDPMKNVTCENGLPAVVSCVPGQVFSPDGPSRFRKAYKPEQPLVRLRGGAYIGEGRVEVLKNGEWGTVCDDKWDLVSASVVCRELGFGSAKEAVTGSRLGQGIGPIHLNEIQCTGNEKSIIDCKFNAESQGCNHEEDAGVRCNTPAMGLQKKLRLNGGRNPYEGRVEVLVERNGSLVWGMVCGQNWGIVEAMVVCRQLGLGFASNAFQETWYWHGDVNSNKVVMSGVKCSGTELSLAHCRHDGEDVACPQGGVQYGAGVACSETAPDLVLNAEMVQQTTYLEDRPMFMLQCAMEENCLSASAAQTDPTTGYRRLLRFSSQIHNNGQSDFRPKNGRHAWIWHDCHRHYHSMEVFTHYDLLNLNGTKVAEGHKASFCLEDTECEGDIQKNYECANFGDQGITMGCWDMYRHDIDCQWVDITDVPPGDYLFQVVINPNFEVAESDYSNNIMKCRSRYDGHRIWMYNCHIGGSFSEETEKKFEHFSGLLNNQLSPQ
As to the kind of experiment: LOXL2 enzyme assay (Promega ROS-Glo, cadaverine substrate). It counts as biochemical. Set-up: Activity (LOXL2 activity used in the RVM model data matrix): unit not given here.

Assay [2] concerns the target T2, LOX (Sus scrofa, UniProt P45845).
T2 sequence (P45845 1-249): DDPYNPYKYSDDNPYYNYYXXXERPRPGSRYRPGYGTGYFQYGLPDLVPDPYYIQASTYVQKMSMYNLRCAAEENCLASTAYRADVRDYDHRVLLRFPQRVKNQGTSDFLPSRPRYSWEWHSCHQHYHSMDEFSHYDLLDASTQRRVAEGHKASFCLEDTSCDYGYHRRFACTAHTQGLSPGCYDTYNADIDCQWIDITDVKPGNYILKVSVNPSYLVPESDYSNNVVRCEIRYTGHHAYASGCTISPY
The assay is described as follows: LOX enzyme assay (Promega ROS-Glo, cadaverine substrate). It counts as biochemical, pig. To be noted: Table 6; 1 h preincubation.
Method: (§1) LOXL2 and LOXL3 were purchased from R&D Systems. LOX, LOXL2, and LOXL3 catalytic activity were determined using the Promega ROS-Glo assay kit with cadaverine dihydrochloride as substrate, BAPN as the reference inhibitor control, a preincubation time of 20 min, 1 h, or 3 h, with nine dilutions from a top concentration of 10 μM or 100 μM.

Assay [3] has as its target T3, SSAO (Homo sapiens, UniProt Q16853).
T3 construct: purchased Sigma
T3 sequence (Q16853 1-763): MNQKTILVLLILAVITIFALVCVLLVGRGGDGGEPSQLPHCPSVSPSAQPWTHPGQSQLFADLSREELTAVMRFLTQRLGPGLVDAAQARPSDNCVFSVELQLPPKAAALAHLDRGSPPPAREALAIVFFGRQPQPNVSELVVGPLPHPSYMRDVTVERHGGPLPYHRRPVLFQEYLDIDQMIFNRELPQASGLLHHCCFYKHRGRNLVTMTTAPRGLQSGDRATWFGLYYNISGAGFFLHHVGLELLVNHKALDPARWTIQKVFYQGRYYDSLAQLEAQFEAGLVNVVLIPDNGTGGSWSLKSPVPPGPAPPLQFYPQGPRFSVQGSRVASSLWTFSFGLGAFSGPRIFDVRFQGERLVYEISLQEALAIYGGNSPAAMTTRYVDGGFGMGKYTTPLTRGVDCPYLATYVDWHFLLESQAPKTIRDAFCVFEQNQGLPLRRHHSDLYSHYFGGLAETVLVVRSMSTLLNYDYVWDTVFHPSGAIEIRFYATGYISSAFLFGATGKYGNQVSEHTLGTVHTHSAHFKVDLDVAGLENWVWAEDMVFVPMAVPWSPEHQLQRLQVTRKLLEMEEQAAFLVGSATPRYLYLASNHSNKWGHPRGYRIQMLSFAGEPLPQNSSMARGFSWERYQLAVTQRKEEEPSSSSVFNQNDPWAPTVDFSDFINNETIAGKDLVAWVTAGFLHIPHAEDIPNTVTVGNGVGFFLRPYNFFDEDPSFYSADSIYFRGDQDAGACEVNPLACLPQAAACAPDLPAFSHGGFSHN
The class given is biochemical.
Method: All amine oxidase assays were performed with concentrations as above. MAO-A and MAO-B enzymes were purchased from Sigma. The catalytic activity of MAO-A and MAO-B was determined using the Promega MAO-Glo assay kit (substrate included), with clorgyline and deprenyl as reference inhibitor controls, respectively. DAO was purchased from Sigma, and the catalytic activity was determined using the Promega ROS-Glo assay kit, with aminoguanidine as the reference inhibitor control. SSAO was purchased from Sigma. SSAO catalytic activity was determined using the Promega MAO-Glo assay kit, with mofegiline as the reference inhibitor control.

Assay [4] addresses T4, LOXL3 (Homo sapiens, UniProt P58215).
T4 sequence (P58215 26-753): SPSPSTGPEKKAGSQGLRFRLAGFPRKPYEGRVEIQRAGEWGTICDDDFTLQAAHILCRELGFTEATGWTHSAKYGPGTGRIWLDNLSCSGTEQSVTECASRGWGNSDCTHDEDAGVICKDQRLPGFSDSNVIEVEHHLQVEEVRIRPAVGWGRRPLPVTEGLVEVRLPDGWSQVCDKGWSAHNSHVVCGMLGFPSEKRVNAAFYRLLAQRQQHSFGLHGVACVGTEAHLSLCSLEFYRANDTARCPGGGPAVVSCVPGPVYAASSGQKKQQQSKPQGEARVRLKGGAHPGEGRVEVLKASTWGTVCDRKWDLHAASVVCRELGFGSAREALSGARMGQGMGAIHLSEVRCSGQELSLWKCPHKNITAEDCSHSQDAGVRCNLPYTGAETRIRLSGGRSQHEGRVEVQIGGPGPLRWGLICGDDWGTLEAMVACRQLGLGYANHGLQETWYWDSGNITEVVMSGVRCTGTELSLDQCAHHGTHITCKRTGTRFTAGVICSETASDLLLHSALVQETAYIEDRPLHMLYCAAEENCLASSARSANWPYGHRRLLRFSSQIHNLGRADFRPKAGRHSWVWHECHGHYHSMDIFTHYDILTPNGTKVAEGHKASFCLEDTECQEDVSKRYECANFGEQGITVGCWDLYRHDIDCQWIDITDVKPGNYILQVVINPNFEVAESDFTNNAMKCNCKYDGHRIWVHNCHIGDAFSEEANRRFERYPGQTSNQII
The assay is described as follows: LOXL3 enzyme assay (Promega ROS-Glo, cadaverine substrate). The class given is biochemical.
Method: as §1

Values joined by “and” are separate entries in the source; they are usually repeats but may differ in a detail not shown here. Identical values can stand only once. Counter-ions that a name gives are not always drawn. Like-named read-outs stand apart in the source and are kept apart here.

On to `NCc1ccc(S(=O)(=O)c2ccc3ccccc3c2)s1` [Compound 4], for which, in assay [1], the “increase in LOXL2 potency on increasing preincubation from 20 min to 1 h” value was at most 5 fold.

With `CNCc1ncc(S(=O)(=O)c2cc(-c3ccccc3)cc(S(C)(=O)=O)c2)s1` [Compound 7b, N-Methyl-1-(5-((5-(methylsulfonyl)-[1,1′-biphenyl]-3-yl)sulfonyl)thiazol-2-yl)methanamine Hydrochloride], the IC50 in assay [1] (read-out: LOXL2, IC50) worked out at 68300 nM.

As to `NCc1ncc(-c2cccc(-c3ccccc3)c2)s1` [Compound 16, (5-([1,1′-Biphenyl]-3-yl)thiazol-2-yl)methanamine Hydrochloride], in assay [1] (read-out: LOXL2 IC50), the IC50 is 1750 nM and 1600 nM.

Take `CS(=O)(=O)c1cc(-c2ccccc2)cc(-c2cnc(CN)s2)c1` [Compound 17, (5-(5-(Methylsulfonyl)-[1,1′-biphenyl]-3-yl)thiazol-2-yl)methanamine Hydrochloride]: the IC50 in assay [2] is 52000 nM and 46500 nM; in assay [1] (read-out: LOXL2 IC50), 652 nM and 716 nM. The “Activity (LOXL2 activity used in the RVM model data matrix)” value in assay [1] was determined as 6.16.

On to `Cc1ccc(-c2cc(S(C)(=O)=O)cc(S(=O)(=O)c3cnc(CN)s3)c2)cc1` [Compound 18, (5-((4′-Methyl-5-(methylsulfonyl)-[1,1′-biphenyl]-3-yl)sulfonyl)thiazol-2-yl)methanamine Hydrochloride], for which the IC50 in assay [3] was 2700 nM and 1300 nM.

With `CS(=O)(=O)c1cc(-c2ccccc2)cc(S(=O)(=O)c2ccc(CN)s2)c1` [Compound 3a], in assay [4], the IC50 is 13500 nM and 18500 nM.

As to `NCc1ncc(S(=O)(=O)c2ccc3ccccc3c2)s1` [Compound 6], the IC50 in assay [3] is 47200 nM and 47100 nM.

Regarding `CCCS(=O)(=O)c1cnc(CN)s1` [Compound 10, (5-(Propylsulfonyl)thiazol-2-yl)methanamine Hydrochloride], the “Activity (LOXL2 activity used in the RVM model data matrix)” value in assay [1] is reported as 6.24. Also, the IC50 in assay [1] (Table 3, 1 h preincubation, read-out: LOXL2 IC50) was 554 nM and 590 nM.

Take `CS(=O)(=O)c1cc(Sc2cnc(CN)s2)cc(-c2ccccc2)c1` [Compound 7d, (5-((5-(Methylsulfonyl)-[1,1′-biphenyl]-3-yl)thio)thiazol-2-yl)methanamine Hydrochloride]: the IC50 in assay [2] was 1310 nM and 1130 nM; in assay [1] (read-out: LOXL2 IC50) it was 233 nM.

`CS(=O)(=O)c1cccc(S(=O)(=O)c2cnc(CN)s2)c1` [Compound 13, (5-((3-(Methylsulfonyl)phenyl)sulfonyl)thiazol-2-yl)methanamine Hydrochloride]: the IC50 in assay [1] (read-out: LOXL2 IC50) is 184 nM and 246 nM.

For the molecule `Cn1cc(-c2cc(Cl)cc(S(=O)(=O)c3cnc(CN)s3)c2)cn1` [Compound 21d, (5-((3-Chloro-5-(1-methyl-1H-pyrazol-4-yl)phenyl)sulfonyl)thiazol-2-yl)methanamine Hydrochloride], the IC50 in assay [1] (Activity column of RVM_model_LOXL2.csv, Type = Data matrix, input activity for the RVM model of LOXL2, read-out: Activity (LOXL2 activity used in the RVM model data matrix) (converted)) was 309 nM; in assay [1] (read-out: LOXL2 IC50) it was 280 nM.

`CS(=O)(=O)c1cc(-c2ccccc2)cc([S+]([O-])c2cnc(CN)s2)c1` (stereo not drawn) [Compound 7c, (5-((5-(Methylsulfonyl)-[1,1′-biphenyl]-3-yl)sulfinyl)thiazol-2-yl)methanamine Hydrochloride]: the IC50 in assay [1] (read-out: LOXL2 IC50) was 244 nM and 236 nM.

Turning to `CS(=O)(=O)c1cccc(-c2cnc(CN)s2)c1` [Compound 14, (5-(3-(Methylsulfonyl)phenyl)thiazol-2-yl)methanamine Hydrochloride], the IC50 in assay [1] (read-out: LOXL2 IC50) was 414 nM and 394 nM.
